# Results from patent US6953812B2, “Glucagon antagonists/inverse agonists” (Novo Nordisk, Inc., priority 2000, dated 2005).
# Assays:
# human glucagon receptor = target: T1, human glucagon receptor (Homo sapiens, UniProt P47871); experiment: Glucagon Binding Assay (II); details: membranes of BHK cells transfected with human glucagon receptor, 125I-glucagon, SPA; read-out: Glu Bd Assay (II) IC50
# T1 construct: expressed in transfected cells; host or cells: BHK (baby hamster kidney) cells, membrane preparation
# Description: Glucagon Binding Assay (II)
# BHK (baby hamster kidney cell line) cells are transfected with the human glucagon receptor and a membrane preparation of the cells is prepared.
# All steps in the membrane preparation are kept on ice or performed at 4° C. BHK cells are harvested and centrifuged. The pellet is resuspended in homogenisation buffer (25 mM HEPES, pH=7.4, 2.5 mM CaCl2, 1.0 mM MgCl2, 250 mg/L bacitracin, 0.1 mM Pefabloc), homogenised 2×10 sec using Polytron 10-35 homogenizer (Kinematica) and added the same amount of homogenisation buffer as used for resuspension. After centrifugation (15 min at 2000×g) the supernatant is transferred to cold centrifuge tubes and centrifuged for 45 min at 40.000×g. The pellet is resuspended in homogenisation buffer, homogenised 2×10 sec (Polytron) and additional homogenisation buffer is added. The suspension is centrifuged for 45 min at 40.000×g and the pellet is resuspended in resuspension buffer (25 mM HEPES, pH=7.4, 2.5 mM CaCl2, 1.0 mM MgCl2) and homogenised 2×10 sec. (Polytron). […] Stabilisation buffer (25 mM HEPES, pH=7.4, 2.5 mM CaCl2, 1.0 mM MgCl2, 1% bovine serum albumin, 500 mg/L bacitracin, 2.5 M sucrose) is added and the membrane preparation is stored at −80° C.
# (§1) The glucagon binding assay is carried out in opti plates (Polystyrene Microplates, Packard). 50 μL assay buffer (25 mM HEPES, pH=7.5, 2.5 mM CaCl2, 1.0 mM MgCl2, 0.003% Tween-20, 0.005% bacitracin, 0.05% sodium azide) and 5 μL glucagon or test compound (in DMSO) are added to each well. […] Finally 50 μL WGA beads containing 1 mg beads are transferred to the well. The opti plates are incubated for 4 hours on a shaker and then settled for 8-48 hours. The opti plates are counted in a Topcounter. Non-specific binding is determined with 500 nM of glucagon.
# human GIP receptor = target: T2, human GIP receptor (Homo sapiens, UniProt P48546); experiment: GIP Binding Assay; details: membranes of BHK cells transfected with human GIP receptor, 125I-GIP, SPA; read-out: GIP Bd Assay IC50
# T2 construct: expressed in transfected cells; host or cells: BHK (baby hamster kidney) cells, membrane preparation
# T2 sequence (P48546 22-466): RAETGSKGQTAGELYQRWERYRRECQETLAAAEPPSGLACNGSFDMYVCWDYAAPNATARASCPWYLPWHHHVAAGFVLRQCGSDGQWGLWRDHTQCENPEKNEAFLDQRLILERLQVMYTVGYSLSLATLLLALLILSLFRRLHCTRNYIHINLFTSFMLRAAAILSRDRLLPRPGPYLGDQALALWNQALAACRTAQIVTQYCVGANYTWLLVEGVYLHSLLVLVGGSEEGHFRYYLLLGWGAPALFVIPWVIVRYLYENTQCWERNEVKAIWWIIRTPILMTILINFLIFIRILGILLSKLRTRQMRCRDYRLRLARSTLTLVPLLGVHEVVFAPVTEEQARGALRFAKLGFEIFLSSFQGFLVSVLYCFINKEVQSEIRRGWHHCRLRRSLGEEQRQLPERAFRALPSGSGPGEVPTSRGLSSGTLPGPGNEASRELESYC
# Description: BHK (baby hamster kidney cell line) cells are transfected with the human GIP receptor and a membrane preparation of the cells is prepared.
# All steps in the membrane preparation are kept on ice or performed at 4° C. BHK cells are harvested and centrifuged. The pellet is resuspended in homogenisation buffer (25 mM) HEPES, pH=7.4, 2.5 mM CaCl2, 1.0 mM MgCl2, 250 mg/L bacitracin, 0.1 mM Pefabloc), homogenised 2×10 sec using Polytron 10-35 homogenizer (Kinematica) and added the same amount of homogenisation buffer as used for resuspension. After centrifugation (15 min at 2000×g) the supernatant is transferred to cold centrifuge tubes and centrifuged for 45 min at 40.000×g. The pellet is resuspended in homogenisation buffer, homogenised 2×10 sec (Polytron) and additional homogenisation buffer is added. The suspension is centrifuged for 45 min at 40.000×g and the pellet is resuspended in resuspension buffer (25 mM HEPES, pH=7.4, 2.5 mM CaCl2, 1.0 mM MgCl2) and homogenised 2×10 sec. (Polytron). […] Stabilisation buffer (25 mM HEPES, pH=7.4, 2.5 mM CaCl2, 1.0 mM MgCl2, 1% bovine serum albumin, 500 mg/L bacitracin, 2.5 M sucrose) is added and the membrane preparation is stored at −80° C.
# as §1, with “The GIP” for “The glucagon”, “μL GIP” for “μL glucagon”, “for 3.5” for “for 4”, “a Top-counter.” for “a Topcounter.”, “of GIP.” for “of glucagon.”
# T1 sequence (P47871 26-477): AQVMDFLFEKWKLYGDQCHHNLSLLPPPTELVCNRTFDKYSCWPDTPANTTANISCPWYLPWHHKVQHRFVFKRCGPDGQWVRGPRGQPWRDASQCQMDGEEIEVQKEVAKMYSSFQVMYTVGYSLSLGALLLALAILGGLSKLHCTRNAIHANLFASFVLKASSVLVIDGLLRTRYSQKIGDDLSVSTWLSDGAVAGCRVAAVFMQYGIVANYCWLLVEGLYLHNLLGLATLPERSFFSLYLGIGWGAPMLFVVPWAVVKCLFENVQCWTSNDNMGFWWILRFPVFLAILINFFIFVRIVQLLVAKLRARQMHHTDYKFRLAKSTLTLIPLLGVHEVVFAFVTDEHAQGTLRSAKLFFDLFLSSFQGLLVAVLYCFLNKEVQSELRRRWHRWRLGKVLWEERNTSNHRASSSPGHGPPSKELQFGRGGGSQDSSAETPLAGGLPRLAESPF
Compound,IC50 (human glucagon receptor) [nM],IC50 (human GIP receptor) [nM]
"O=C(NC[C@@H](O)C(=O)O)c1ccc(CN(C(=O)Nc2cc(Cl)cc(Cl)c2)c2ccc(C3=CCCCC3)cc2)cc1 [Example 19, (R)-3-{4-[1-(4-Cyclohex-1-enylphenyl)-3-(3,5-dichlorophenyl)ureidomethyl]benzoylamino}-2-hydroxypropionic acid]",15,916
"O=C(NC[C@@H](O)C(=O)O)c1ccc(CN(C(=O)Nc2cccc(Cl)c2)c2ccc(C3=CCCCC3)cc2)cc1 [Example 20, (R)-3-{4-[3-(3-Chlorophenyl)-1-(4-cyclohex-1-enylphenyl)ureidomethyl]benzoylamino}-2-hydroxypropionic acid]",52,693
"O=C(NC[C@@H](O)C(=O)O)c1ccc(CN(C(=O)Nc2ccccc2)c2ccc(C3=CCCCC3)cc2)cc1 [Example 21, (R)-3-{4-[1-(4-Cyclohex-1-enylphenyl)-3-phenylureidomethyl]benzoylamino}-2-hydroxypropionic acid]",293,1260
"O=C(NC[C@@H](O)C(=O)O)c1ccc(CN(C(=O)NCc2ccccc2)c2ccc(C3=CCCCC3)cc2)cc1 [Example 22, (R)-3-{4-[3-Benzyl-1-(4-cyclohex-1-enylphenyl)ureidomethyl]benzoylamino}-2-hydroxypropionic acid]",354,2270
"O=C(NC[C@@H](O)C(=O)O)c1ccc(CN(C(=O)Nc2ccc(SC(F)(F)F)cc2)c2ccc(C3CCCCC3)cc2)cc1 [Example 24, (R)-3-{4-[1-(4-Cyclohexylphenyl)-3-(4-trifluoromethylsulfanylphenyl)ureidomethyl]benzoylamino}-2-hydroxypropionic acid]",4.4,37
"CS(=O)(=O)c1cc(NC(=O)N(Cc2ccc(C(=O)NC[C@@H](O)C(=O)O)cc2)c2ccc(C3=CCCCC3)cc2)ccc1OC(F)(F)F [Example 25, (R)-3-{4-[1-(4-Cyclohexen-1-ylphenyl)-3-(3-methanesulfonyl-4-trifluoromethoxyphenyl)ureidomethyl]benzoylamino}-2-hydroxypropionic acid]",10,465
"Cc1cc(C)cc(NC(=O)N(Cc2ccc(C(=O)NC[C@@H](O)C(=O)O)cc2)[C@H]2CC[C@H](C(C)(C)C)CC2)c1 [Example 26, Trans-(R)-3-{4-[-3-(3,5-bis(methyl)phenyl)-1-(4-tert-butylcyclohexyl)ureidomethyl]benzoylamino}-2-hydroxypropionic Acid]",92,703
"O=C(NC[C@@H](O)C(=O)O)c1ccc(CN(C(=O)Nc2cc(Cl)cc(Cl)c2)c2ccc(C3CCCCC3)cc2)cc1 [Example 27, (R)-3-{4-[1-(4-Cyclohexylphenyl)-3-(3,5-dichlorophenyl)ureidomethyl]benzoylamino}-2-hydroxypropionic Acid]",9.7,258
"CSc1cccc(NC(=O)N(Cc2ccc(C(=O)NC[C@@H](O)C(=O)O)cc2)c2ccc(C3CCCCC3)cc2)c1 [Example 29, (R)-3-{4-[1-(4-Cyclohexylphenyl)-3-(3-methylsulfanylphenyl)ureidomethyl]benzoylamino}-2-hydroxypropionic Acid]",24,623
"O=C(NC[C@@H](O)C(=O)O)c1ccc(CN(C(=O)Nc2ccc3c(c2)C(F)(F)OC(F)(F)O3)c2ccc(C3=CCCCC3)cc2)cc1 [Example 30, (R)-3-{4-[1-(4-Cyclohex-1-enylphenyl)-3-(2,2,4,4-tetrafluoro-4H-benzo[1,3]dioxin-6-yl)ureido-methyl]benzoylamino}-2-hydroxypropionic Acid]",13,217
"CO[C@H](CNC(=O)c1ccc(CN(C(=O)Nc2cc(Cl)cc(Cl)c2)c2ccc(C3=CCCCC3)cc2)cc1)C(=O)O [Example 31, 3-{4-[1-(4-Cyclohex-1-enylphenyl)-3-(3,5-dichlorophenyl)ureidomethyl]benzoylamino}-2(R)-methoxypropionic Acid]",917,≥ 3000
"C[C@H](NC(=O)N(Cc1ccc(C(=O)NC[C@@H](O)C(=O)O)cc1)c1ccc(C2CCCCC2)cc1)c1ccc(Cl)cc1 [Example 35, 3-{4-[3-[1(S)-(4-Chlorophenyl)ethyl]-1-(4-cyclohexylphenyl)ureidomethyl]benzoylamino}-2(R)-hydroxypropionic Acid]",40,432
"O=C(NC[C@@H](O)C(=O)O)c1ccc(CN(C(=O)NCc2ccccc2-c2ccccc2)c2ccc(C3CCCCC3)cc2)cc1 [Example 36, 3-{4-[3-Biphenyl-2-ylmethyl-1-(4-cyclohexylphenyl)ureidomethyl]benzoylamino}-2(R)-hydroxypropionic acid]",14,284
"N#Cc1ccc(NC(=O)N(Cc2ccc(C(=O)NC[C@@H](O)C(=O)O)cc2)c2ccc(C3CCCCC3)cc2)cc1C(F)(F)F [Example 37, (R)-3-{4-[3-(4-Cyano-3-trifluoromethylphenyl)-1-(4-cyclohexylphenyl)ureidomethyl]benzoyl-amino}-2-hydroxypropionic Acid]",19,520
"CC(C)(C)c1cccc(NC(=O)N(Cc2ccc(C(=O)NC[C@@H](O)C(=O)O)cc2)c2ccc(C3CCCCC3)cc2)c1 [Example 38, (R)-3-{4-[3-(3-tert-Butylphenyl)-1-(4-cyclohexylphenyl)ureidomethyl]benzoylamino)-2-hydroxypropionic Acid]",33,221
"O=C(NC[C@@H](O)C(=O)O)c1ccc(CN(C(=O)Nc2ccc(OC(F)(F)F)c(CO)c2)c2ccc(C3CCCCC3)cc2)cc1 [Example 39, (R)-3-{4-[1-(4-Cyclohexylphenyl)-3-(3-hydroxymethyl-4-trifluoromethoxyphenyl)ureidomethyl]-benzoylamino}-2-hydroxypropionic Acid]",18,357
"CC(C)(C)c1ccc(N(Cc2ccc(C(=O)NC[C@@H](O)C(=O)O)cc2)C(=O)Nc2ccc(Cl)c(Cl)c2)cc1 [Example 40, (R)-3-{4-[1-(4-tert-butylphenyl)-3-(3,4-dichlorophenyl)ureidomethyl]benzoylamino}-2-hydroxypropionic acid]",107,800
"CC(C)(C)C1CCC(N(Cc2ccc(C(=O)NC[C@@H](O)C(=O)O)cc2)C(=O)Nc2ccc(Cl)c(Cl)c2)CC1 (stereo partly drawn) [Example 41, (R)-3-{4-[1-(4-tert-Butylcyclohexyl)-3-(3,4-dichlorophenyl)ureidomethyl]benzoylamino}-2-hydroxypropionic acid]",133,1590
